Experimental data: ChEMBL document CHEMBL5625249, “Optimization and antifungal activity of quinoline derivatives linked to chalcone moiety combined with FLC against Candida albicans” (Eur J Med Chem, 2023)
Active and inactive are the calls of the source. No cut-off for these calls is given here.

Assays:
Candida albicans [1] = assay: Synergistic antifungal activity against Clinical FLC-resistant Candida albicans 23 measured after 24 hrs in presence of fluconazole by microdilution method; format: functional
Candida albicans [2] = assay: Synergistic antifungal activity against FLC-sensitive Candida albicans SC5314 assessed as fractional inhibitory concentration index measured after 24 hrs in presence of fluconazole by microdilution method; format: functional
Candida albicans [3] = assay: Antifungal activity against clinical FLC-resistant Candida albicans 187 measured after 24 hrs by microdilution method; format: functional
Candida albicans [4] = assay: Antifungal activity against clinical FLC-resistant Candida albicans 800 measured after 24 hrs by microdilution method; format: functional
Candida albicans [5] = assay: Antifungal activity against clinical FLC-resistant Candida albicans 799 measured after 24 hrs by microdilution method; format: functional
Candida albicans [6] = assay: Antifungal activity against clinical FLC-resistant Candida albicans 4508 measured after 24 hrs by microdilution method; format: functional
Candida albicans [7] = assay: Antifungal activity against clinical FLC-resistant Candida albicans 3511 measured after 24 hrs by microdilution method; format: functional
Candida albicans [8] = assay: Antifungal activity against FLC-resistant Candida albicans ATCC 10231 measured after 24 hrs by microdilution method; format: functional
Candida albicans [9] = assay: Synergistic antifungal activity against clinical FLC-resistant Candida albicans 808 measured after 24 hrs by microdilution method; format: functional
Candida albicans [10] = assay: Synergistic antifungal activity against clinical FLC-resistant Candida albicans 3816 measured after 24 hrs by microdilution method; format: functional
Candida albicans [11] = assay: Synergistic antifungal activity against FLC-resistant Candida albicans ATCC 14053 measured after 24 hrs by microdilution method; format: functional
Candida albicans [12] = assay: Synergistic antifungal activity against clinical FLC-resistant Candida albicans 808 assessed as fractional inhibitory concentration index measured after 24 hrs by microdilution method; format: functional
Candida albicans [13] = assay: Synergistic antifungal activity against clinical FLC-resistant Candida albicans 3816 assessed as fractional inhibitory concentration index measured after 24 hrs by microdilution method; format: functional
Candida albicans [14] = assay: Synergistic antifungal activity against clinical FLC-resistant Candida albicans 4508 assessed as fractional inhibitory concentration index measured after 24 hrs by microdilution method; format: functional
Candida albicans [15] = assay: Synergistic antifungal activity against FLC-resistant Candida albicans ATCC 10231 assessed as fractional inhibitory concentration index measured after 24 hrs by microdilution method; format: functional
Candida albicans [16] = assay: Antifungal activity against FLC-resistant Candida albicans ATCC 14053 at 1 ug/mL measured over 48 hrs by time-killing assay; format: functional, organism-based; conditions: dose 1.0 µg/ml
Candida albicans [17] = assay: Synergistic antifungal activity against FLC-resistant Candida albicans ATCC 14053 assessed as inhibition of rhodamine 6G efflux measured within 30 mins in presence of fluconazole by Rhodamine 6G staining based fluorescence assay; format: functional, organism-based
Candida albicans [18] = assay: Synergistic antifungal activity against FLC-resistant Candida albicans ATCC 14053 assessed as inhibition of rhodamine 6G efflux incubated for 4 hrs under shaking condition in presence of fluconazole by Rhodamine 6G staining based fluorescence assay; format: functional, organism-based
Candida albicans [19] = assay: Antifungal activity against FLC-resistant Candida albicans ATCC 14053 cultured in spider medium assessed as inhibition of hyphal formation at 1 ug/ml measured after 2 hrs by inverted microscopy; format: functional, organism-based; conditions: dose 1.0 µg/ml
Candida albicans [20] = assay: Synergistic antifungal activity against FLC-resistant Candida albicans ATCC 14053 assessed as inhibition of hyphal formation by measuring down regulation of RAS1 gene expression at 1 ug/ml measured after 16 to 18 hrs in presence of fluconazole by qRT-PCR analysis; format: functional, organism-based; conditions: dose 1.0 µg/ml, time 16-18 hrs
Candida albicans [21] = assay: Antifungal activity against FLC-resistant Candida albicans ATCC 14053 cultured in SD +10% FBS liquid medium assessed as inhibition of hyphal formation at 1 ug/ml measured after 2 hrs by inverted microscopy; format: functional, organism-based; conditions: dose 1.0 µg/ml
Candida albicans [22] = assay: Synergistic antifungal activity against FLC-resistant Candida albicans ATCC 14053 cultured in SD +10% FBS liquid medium assessed as inhibition of hyphal formation at 1 ug/ml measured after 4 to 8 hrs in presence of fluconazole and dibutyryl-cAMP by inverted microscopy; format: functional, organism-based; conditions: dose 1.0 µg/ml, time 4-8 hrs
Candida albicans [23] = assay: Induction of mitochondrial membrane potential loss in FLC-resistant Candida albicans ATCC 14053 at 1 ug/mL measured after 16 to 18 hrs in presence of fluconazole by JC-1 staining based fluorescence assay; format: functional, organism-based; conditions: dose 1.0 µg/ml, time 16-18 hrs
Candida albicans [24] = assay: Synergistic antifungal activity against FLC-resistant Candida albicans ATCC 14053 assessed as reduction in intracellular ATP level at 1 ug/ml measured after 16 to 18 hrs in presence of fluconazole by luminescence assay; format: functional, organism-based; conditions: dose 1.0 µg/ml, time 16-18 hrs
[25] = Toxicity in Balb/c mouse assessed as death at 15 mg/kg, ig measured daily for 6 days; format: organism-based; conditions: in vivo, po, 144 h, time 6 day
Candida albicans [26] = assay: In vivo antifungal activity against FLC-resistant Candida albicans ATCC 14053 infected in Balb/c mouse assessed as survival rate at 7.5 to 15 mg/kg, ig measured daily for 6 days in presence of fluconazole (Rvb < 20%); format: functional; conditions: dose 7.5-15 mg/kg, time 6 day
[27] = Toxicity in Balb/c mouse infected with FLC-resistant Candida albicans ATCC 14053 assessed as weight loss at 7.5 to 15 mg/kg, ig measured daily for 6 days in presence of fluconazole; format: organism-based; conditions: in vivo, po, 144 h, dose 7.5-15 mg/kg, time 6 day
Candida albicans [28] = assay: In vivo antifungal activity against FLC-resistant Candida albicans ATCC 14053 infected in Balb/c mouse assessed as reduction in liver fungal load at 7.5 to 15 mg/kg, ig measured after 6 days in presence of fluconazole; format: functional, organism-based; conditions: dose 7.5-15 mg/kg, time 6.0 day
Candida albicans [29] = assay: In vivo antifungal activity against FLC-resistant Candida albicans ATCC 14053 infected in Balb/c mouse assessed as reduction in liver fungal load at 15 mg/kg, ig measured after 6 days; format: functional, organism-based; conditions: time 6.0 day
Candida albicans [30] = assay: In vivo antifungal activity against FLC-resistant Candida albicans ATCC 14053 infected in Balb/c mouse assessed as reduction in lung fungal load at 7.5 to 15 mg/kg, ig measured after 6 days in presence of fluconazole; format: functional, organism-based; conditions: dose 7.5-15 mg/kg, time 6.0 day
Candida albicans [31] = assay: In vivo antifungal activity against FLC-resistant Candida albicans ATCC 14053 infected in Balb/c mouse assessed as increase in organ coefficients of spleen at 7.5 to 15 mg/kg, ig measured after 6 days in presence of fluconazole; format: functional, organism-based; conditions: dose 7.5-15 mg/kg, time 6.0 day
Candida albicans [32] = assay: In vivo antifungal activity against FLC-resistant Candida albicans ATCC 14053 infected in Balb/c mouse assessed as restoration of normal lung morphology at 15 mg/kg, ig measured after 6 days by H and E staining based histopathological analysis; format: functional, organism-based; conditions: time 6.0 day
Candida albicans [33] = assay: In vivo antifungal activity against FLC-resistant Candida albicans ATCC 14053 infected in Balb/c mouse assessed as reduction in severity of lesions in lungs at 15 mg/kg, ig measured after 6 days by H and E staining based histopathological analysis; format: functional, organism-based; conditions: time 6.0 day
Candida albicans [34] = assay: In vivo antifungal activity against FLC-resistant Candida albicans ATCC 14053 infected in Balb/c mouse assessed as reduction in infiltration of inflammatory cells at 15 mg/kg, ig measured after 6 days by H and E staining based histopathological analysis; format: functional, organism-based; conditions: time 6.0 day
[35] = Cytotoxicity against human 16-HBE cells assessed as cell survival at 90 ug/ml measured after 24 hrs by MTS assay relative to control; format: toxicity, cell-based; conditions: 16-HBE cells (16HBE14o-), at 90 µg/mL, read-out: Survival

CN1CCN(c2nc3ccccc3cc2/C=C/C(=O)c2ccc(N3CCN(Cc4ccc(C(F)(F)F)cc4)CC3)cc2)CC1
MIC80 (Candida albicans [1]): 1.2 µg/mL
fractional inhibitory concentration index (FICI) (Candida albicans [2]): 0.21
MIC80 (Candida albicans [3]): > 40 µg/mL
MIC80 (Candida albicans [4]): > 40 µg/mL
MIC80 (Candida albicans [5]): > 40 µg/mL
MIC80 (Candida albicans [6]): > 40 µg/mL
MIC80 (Candida albicans [7]): > 40 µg/mL
MIC80 (Candida albicans [8]): > 40 µg/mL
MIC80 (Candida albicans [9]): 0.38 µg/mL
MIC80 (Candida albicans [10]): 1.2 µg/mL
MIC80 (Candida albicans [11]): 0.87 µg/mL
fractional inhibitory concentration index (FICI) (Candida albicans [12]): 0.01
fractional inhibitory concentration index (FICI) (Candida albicans [13]): 0.03
fractional inhibitory concentration index (FICI) (Candida albicans [14]): 0.03
fractional inhibitory concentration index (FICI) (Candida albicans [15]): 0.14
Activity (Candida albicans [16]): inactive
inhibition (Candida albicans [17]): inactive
inhibition (Candida albicans [18]): Active
inhibition (Candida albicans [19]): inactive
inhibition (Candida albicans [20]): Active
inhibition (Candida albicans [21]): inactive
inhibition (Candida albicans [22]): inactive
Activity (Candida albicans [23]): Active
Activity (Candida albicans [24]): Active
Activity [25]: Non-Toxic
Survival (Candida albicans [26]): 90%
Activity [27]: Non-Toxic
Activity (Candida albicans [28]): inactive
Activity (Candida albicans [29]): inactive
Activity (Candida albicans [30]): inactive
Activity (Candida albicans [31]): Active
Activity (Candida albicans [32]): inactive
Activity (Candida albicans [33]): inactive
Activity (Candida albicans [34]): inactive
viability at 24 h, 90 ug/ml [35]: 76.5%
